# Assays:
# Type in all cases: cell-based, M. maize
# [1] = molecular target: T1, mutant pyrrolysyl tRNA synthetase comprising amino acid substitutions Y306A and Y384F (pylRS^AF) (Methanosarcina mazei, UniProt Q8PWY1, Y306A/Y384F); test: Expression of GFP^TAG in E. coli in presence of UAA (amber suppression) with tRNA^pyl/pylRS^AF; details: 1 mM UAA; for incorporation by RS^AF (GFP fluorescence, SDS-PAGE): FIG. 6; for Expression of GFP^TAG protein: pylRS^WT or pylRS^AF, compared to negative control (FIG. 1)
# T1 construct: expressed in transfected cells; host or cells: E. coli Top10, plasmid pEVOL tRNA^pyl/pylRS^AF
# T1 sequence (Q8PWY1 whole entry Y306A/Y384F): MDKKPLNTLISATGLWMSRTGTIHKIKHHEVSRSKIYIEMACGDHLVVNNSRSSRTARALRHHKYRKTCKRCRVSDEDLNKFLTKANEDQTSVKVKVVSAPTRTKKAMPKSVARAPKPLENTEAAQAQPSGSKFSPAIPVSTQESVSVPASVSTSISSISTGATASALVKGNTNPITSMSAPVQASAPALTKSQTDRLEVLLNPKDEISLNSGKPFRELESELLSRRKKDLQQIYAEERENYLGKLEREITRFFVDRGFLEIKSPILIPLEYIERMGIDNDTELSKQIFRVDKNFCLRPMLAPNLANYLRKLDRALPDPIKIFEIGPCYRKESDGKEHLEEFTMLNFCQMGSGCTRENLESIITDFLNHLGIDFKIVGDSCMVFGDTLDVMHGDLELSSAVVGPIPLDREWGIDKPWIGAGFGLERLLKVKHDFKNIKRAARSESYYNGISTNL
# tRNA^pyl/pylRS^WT = molecular target: T2, tRNA^pyl/pylRS^WT (Methanosarcina mazei, UniProt Q8PWY1); test: UAA dependent amber suppression in HeLa cells (NLS-mCherry-^TAGGFP, automated microscope), RS^WT; details: HeLa nuclei, 24 h after transfection
# T2 construct: expressed in transfected cells; host or cells: HeLa Kyoto cells, plasmid pCMV tRNA^pyl/pylRS^WT
# T2 sequence (Q8PWY1 whole entry): as the sequence (Q8PWY1 whole entry Y306A/Y384F) above, with A306Y, F384Y counted along it
# Description: (§1) A single expression plasmid for expression of both tRNA^pyl and the pyrrolysine synthetase pylRS was generated by replacing the tRNA and synthetase of mammalian UAA expression plasmid pSWAN (Liu et al., Nat Methods 2007, 4: 239) with a synthetic gene derived from the plasmid pEVOL tRNA^pyl/pylRS^WT or pEVOL tRNA^pyl/pylRS^AF.
# (§2) For mammalian amber suppression studies, a NLS-mCherry-^TAGGFP fusion protein was generated. Due to the nuclear localization sequence (NLS) the expressed protein was targeted to the nucleus. Accordingly, mCherry expression was visible by orange fluorescence in the nucleus signifying the successful transfection of the plasmid. Green fluorescence indicated successful GFP expression due to successful co-transfection of the appropriate tRNA^pyl/pylRS plasmid and suppression of the amber codon in the fused ^TAGGFP.
# (§3) UAA concentration dependent GFP expression in the presence of UAA 1, 13, 16 or 17 and RS^WT or RS^AF was analyzed using the following automated microscope procedure.
# (§4) HeLa Kyoto cells were grown in DMEM low glucose medium (1 g/l) (Sigma, Munich, Germany) with 10% FBS (Sigma) and 1% L-glutamine. 10−20×10^3 cells per well were seeded in a glass bottom 24-well chamber and cultured overnight. On the next-day, the growth medium was exchanged for fresh one supplied with increasing concentrations of UAA (0, 1, 10, 100, 250, 1000 μM), and the cells were co-transfected (1:1 ratio) with plasmids-carrying NLS-mCherry-^TAGGFP and the respective tRNA^pyl/pylRS pair (RS^WT or RS^AF) using jetPRIME transfection reagent following the manufacturer protocol (Polyplus-transfection. SA, Illkirch, France). 24 h after transfection, cells were stained with Hoechst 33342 (1 μg/ml, 10 min), fixed with 2% paraformaldehyde (15 min, RT) and kept in PBS for imaging. For every UAA concentration, the experiment was repeated twice and in two independently prepared 24 well chambers.
# (§5) Microscopy imaging was performed using automated widefield Olympus ScanR microscope (objective UplanApo 20×, 0.70 NA, Hamamatsu Orca R2 CCD camera) in, three channels (Hoechst, GFP, mCherry). For every well at least 25 images (1344×1024 pixels; 433×330 μm, 12-bit) were acquired (exposure times: 30 ms Hoechst, 100 ms mCherry, 100 ms for GFP). Hoechst staining allowed use of the automated focus option of the system. Images were analyzed using the ImageJ macro (http://fiji.sc/wiki/index.php) allowing quantification of GFP fluorescence intensity in the cells showing mCherry fluorescence signal. Hoechst staining was used to threshold and select nuclei. For every detected nucleus, intensities, in the mCherry and GFP channels were quantified. Background intensities in GFP and mCherry channel were measured using one well of each chamber containing cells that were not transfected but stained with Hoechst. Those background values set the threshold to discriminate cells expressing mCherry from the background. For every well the average intensity of GFP (IGFP) in cells positive for GFP and mCherry signals was determined as a measure of successful UAA incorporation. GFP intensities were normalized separately for every UAA based on the maximal observed signal (either for RS^WT or RS^AF).
# tRNA^pyl/pylRS^AF = molecular target: T3, tRNA^pyl/pylRS^AF (Methanosarcina mazei, UniProt Q8PWY1, Y306A/Y384F); test: UAA dependent amber suppression in HeLa cells (NLS-mCherry-^TAGGFP, automated microscope), RS^AF; details: HeLa nuclei, 24 h after transfection
# T3 construct: expressed in transfected cells; host or cells: HeLa Kyoto cells, plasmid pCMV tRNA^pyl/pylRS^AF
# T3 sequence (Q8PWY1 whole entry Y306A/Y384F): as the sequence (Q8PWY1 whole entry Y306A/Y384F) above
# Description: as §1, §2, §3, §4, §5
# [2] = molecular target: T4, wildtype pyrrolysyl tRNA synthetase (pylRS^WT) (Methanosarcina mazei, UniProt Q8PWY1); test: Expression of GFP^TAG in E. coli in presence of UAA (amber suppression) with tRNA^pyl/pylRS^WT; details: 1 mM UAA, FIG. 6
# T4 construct: expressed in transfected cells; host or cells: E. coli Top10, plasmid pEVOL tRNA^pyl/pylRS^WT
# T4 sequence (Q8PWY1 whole entry): as the sequence (Q8PWY1 whole entry Y306A/Y384F) above, with A306Y, F384Y counted along it
Compound,"incorporation by RS^AF (GFP fluorescence, SDS-PAGE) [1]",Expression of GFP^TAG protein [1],"IGFP (average intensity of GFP, normalized) (tRNA^pyl/pylRS^WT; 1 μM UAA)","IGFP (average intensity of GFP, normalized) (tRNA^pyl/pylRS^WT; 10 μM UAA)","IGFP (average intensity of GFP, normalized) (tRNA^pyl/pylRS^WT; 100 μM UAA)","IGFP (average intensity of GFP, normalized) (tRNA^pyl/pylRS^WT; 250 μM UAA)","IGFP (average intensity of GFP, normalized) (tRNA^pyl/pylRS^WT; 1000 μM UAA)","IGFP (average intensity of GFP, normalized) (tRNA^pyl/pylRS^AF; 1 μM UAA)","IGFP (average intensity of GFP, normalized) (tRNA^pyl/pylRS^AF; 10 μM UAA)","IGFP (average intensity of GFP, normalized) (tRNA^pyl/pylRS^AF; 100 μM UAA)","IGFP (average intensity of GFP, normalized) (tRNA^pyl/pylRS^AF; 250 μM UAA)","IGFP (average intensity of GFP, normalized) (tRNA^pyl/pylRS^AF; 1000 μM UAA)",Incorporation by RS^WT (GFP^TAG expression) [2]
"N[C@@H](CCCCNC(=O)OC1C#CCCCCC1)C(=O)O (stereo partly drawn) [compound 1, N-ε-((Cyclooct-2-yn-1-yloxy)carbonyl)-L-lysine]",efficient incorporation,observed,3.3,5.9,27.6,59.6,57.5,23.7,131.7,106.1,203.6,118.4,–
"N[C@@H](CCCCNC(=O)OCCOC1C#CCCCCC1)C(=O)O (stereo partly drawn) [compound 2, N-ε-((2-(Cyclooct-2-yn-1-yloxy)ethoxy)carbonyl)-L-lysine]",–,observed,–,–,–,–,–,–,–,–,–,–,–
N[C@@H](CCCCNC(=O)OC1CC2C=CC1C2)C(=O)O (some centres unmarked) [compound 16],efficient incorporation,–,1.5,6.9,9.4,171.6,178.3,5.7,46.1,114.8,100.4,96.9,highest GFP^TAG expression
N[C@@H](CCCCNC(=O)OCC1CC2C=CC1C2)C(=O)O (some centres unmarked) [compound 17],efficient incorporation,–,4.2,2.6,4.3,5.7,12.8,10.9,57.5,76.6,163.5,108.9,–
N[C@@H](CCCCNC(=O)OC1CC/C=C/CCC1)C(=O)O (some centres unmarked) [compound 13],efficient incorporation,–,6.3,6.9,15.9,22.3,33.2,11.1,11.0,28.8,36.5,20.6,–
